{"source": "patent US7041701B2", "about": "“Triterpenoid derivatives” (Univerzita Palackeho V Olomouci, priority 2000, dated 2006)", "tested_on": "MDA-MB-238 human breast cancer, estrogen independent, p53mut/mut", "assay": "MTT cytotoxicity assay, MDA-MB-238", "format": "cell-based", "details": "72 hours, read-out: TCS50", "description": "One of the parameters used as the basis for colorimetric assays is the metabolic activity of viable cells. For example, a microtiter assay which uses the tetrazolium salt MTT is now widely used to quantitate cell proliferation and cytotoxicity [Hajdúch M, Mihál V, Minarík J, Fáber E, Safárová M, Weigl E, Antálek P.: Cytotechnology, 1996, 19, 243–245]. For instance, this assay is used in drug screening programs and in chemosensitivity testing. Because tetrazolium salts are cleaved only by metabolically active cells, these assays exclusively detect viable cells. In the case of the MTT assay, yellow soluble tetrazolium salt is reduced to a coloured water-insoluble formazan salt. After it is solubilized, the formazan formed can easily and rapidly be quantified in a conventional ELISA plate reader at 570 nm (maximum absorbancy). The quantity of reduced formazan corresponds to the number of vital cells in the culture. […]\nThe cell suspensions that were prepared and diluted according to the particular cell type and the expected target cell density (2,500–30,000 cells per well based on cell growth characteristics) were added by pipette (80 μl) into 96/well microtiter plates. […] Usually, test compounds were evaluated at six 4-fold dilutions. […] The tumour cell survival (TCS) was calculated using the following equitation: TCS=(ODdrug exposed well/mean ODcontrol wells)×100%. […]"}
{"smiles": "CC(=O)OC[C@@]1(C(=O)O)CC[C@]2(C)[C@H](CC[C@@H]3[C@@]4(C)CC[C@H](OC(C)=O)C(C)(C)[C@@H]4CC[C@]32C)C1=O", "note": "[I.3, 3β,28-diacetoxy-18-oxo-19,20,21,29,30-pentanorlupan-22-oic acid]", "values": [{"measurement": "IC50", "value": 1.4, "unit": "µM"}]}
